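A five-concentration, 48-hour dose response in 96-well plates underlies each endpoint, interpolated linearly between surrounding concentrations. Definition used: TGI = concentration required for complete inhibition of growth.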
Columns and labels:
Experiment in all cases: NCI tumour cell line growth inhibition, 48 h
[1] = tested on: DMS 273 small cell lung
[2] = tested on: SF-539 CNS
[3] = tested on: HCT-116 colon
[4] = tested on: HOP-92 NSCLC
[5] = tested on: HT29 colon
[6] = tested on: LOX IMVI melanoma
[7] = tested on: MOLT-4 leukemia
[8] = tested on: UACC-62 melanoma
[9] = tested on: P388/ADR leukemia
[10] = tested on: K-562 leukemia
[11] = tested on: OVCAR-3 ovarian
[12] = tested on: SK-MEL-2 melanoma
[13] = tested on: SF-295 CNS
[14] = tested on: HOP-62 NSCLC
[15] = tested on: SNB-19 CNS
[16] = tested on: NCI-H460 lung
[17] = tested on: U251 CNS
[18] = tested on: SW-620 colon
[19] = tested on: KM12 colon
[20] = tested on: SF-268 CNS
[21] = tested on: HOP-18 NSCLC
[22] = tested on: XF 498 CNS
[23] = tested on: P388 leukemia
[24] = tested on: HL-60(TB) leukemia
[25] = tested on: A549 NSCLC
[26] = tested on: SNB-78 CNS
[27] = tested on: MALME-3M melanoma
[28] = tested on: DLD-1 colon
[29] = tested on: SN12K1 renal
[30] = tested on: RPMI-8226 leukemia
[31] = tested on: IGROV1 ovarian
[32] = tested on: OVCAR-8 ovarian
[33] = tested on: SNB-75 CNS
[34] = tested on: NCI-H522 lung
[35] = tested on: SK-MEL-5 melanoma
[36] = tested on: MCF7 breast
[37] = tested on: EKVX NSCLC
[38] = tested on: SK-MEL-28 melanoma
[39] = tested on: OVCAR-4 ovarian
[40] = tested on: RXF 393 renal
[41] = tested on: KM20L2 colon
[42] = tested on: NCI-H23 lung
[43] = tested on: COLO 205 colon
[44] = tested on: DMS 114 small cell lung
[45] = tested on: A498 renal
[46] = tested on: UACC-257 melanoma
[47] = tested on: NCI/ADR-RES ovarian
[48] = tested on: HCC-2998 colon
[49] = tested on: CCRF-CEM leukemia
[50] = tested on: HCT-15 colon
[51] = tested on: UO-31 renal
[52] = tested on: OVCAR-5 ovarian
[53] = tested on: NCI-H226 lung
[54] = tested on: CAKI-1 renal
[55] = tested on: M19-MEL melanoma
[56] = tested on: SK-OV-3 ovarian
[57] = tested on: SN12C renal
[58] = tested on: 786-0 renal
[59] = tested on: LXFL 529 NSCLC
[60] = tested on: M14 melanoma
[61] = tested on: SR leukemia
[62] = tested on: TK-10 renal
[63] = tested on: RXF-631 renal
[64] = tested on: ACHN renal

With CCOC(=O)/C(O)=C1\C(=O)N(C)C(=O)C1c1ccc(OC)c(OC)c1 (stereo not drawn) as the compound, how does the TGI [1] read?
Its TGI is > 100 µM.

And the TGI [2]?
Its TGI is > 100 µM.

What about the TGI [3] of the same compound?
The TGI was > 100 µM.

And the TGI [4]?
Its TGI is > 100 µM.

What about the TGI [5] of the same compound?
The TGI was > 100 µM.

What about the TGI [6] of the same compound?
Its TGI is > 100 µM.

What about the TGI [7] of the same compound?
The TGI was > 100 µM.

And the TGI [8]?
The TGI was > 100 µM.

What about the TGI [9] of the same compound?
The TGI was > 31.6 µM.

What about the TGI [10] of the same compound?
Its TGI is > 100 µM.

And the TGI [11]?
Its TGI is > 100 µM.

What about the TGI [12] of the same compound?
Its TGI is > 100 µM.

And the TGI [13]?
Its TGI is > 100 µM.

What about the TGI [14] of the same compound?
Its TGI is > 100 µM.

What about the TGI [15] of the same compound?
Its TGI is > 100 µM.

And the TGI [16]?
The TGI was > 100 µM.

And the TGI [17]?
Its TGI is > 100 µM.

What about the TGI [18] of the same compound?
The TGI was > 31.6 µM.

And the TGI [19]?
The TGI was > 100 µM.

And the TGI [20]?
Its TGI is > 100 µM.

And the TGI [21]?
Its TGI is > 100 µM.

And the TGI [22]?
Its TGI is > 100 µM.

What about the TGI [23] of the same compound?
Its TGI is > 100 µM.

What about the TGI [24] of the same compound?
The TGI was > 100 µM.

And the TGI [25]?
Its TGI is > 100 µM.

And the TGI [26]?
Its TGI is > 100 µM.

And the TGI [27]?
Its TGI is > 100 µM.

What about the TGI [28] of the same compound?
The TGI was > 100 µM.

What about the TGI [29] of the same compound?
The TGI was > 100 µM.

What about the TGI [30] of the same compound?
The TGI was > 100 µM.

What about the TGI [31] of the same compound?
Its TGI is > 100 µM.

And the TGI [32]?
The TGI was > 100 µM.

And the TGI [33]?
The TGI was > 100 µM.

And the TGI [34]?
The TGI was > 100 µM.

And the TGI [35]?
The TGI was > 100 µM.

What about the TGI [36] of the same compound?
The TGI was > 100 µM.

And the TGI [37]?
Its TGI is > 100 µM.

What about the TGI [38] of the same compound?
Its TGI is > 100 µM.

And the TGI [39]?
The TGI was > 100 µM.

What about the TGI [40] of the same compound?
The TGI was > 100 µM.

And the TGI [41]?
Its TGI is > 100 µM.

And the TGI [42]?
The TGI was > 100 µM.

And the TGI [43]?
The TGI was > 100 µM.

What about the TGI [44] of the same compound?
The TGI was > 100 µM.

And the TGI [45]?
Its TGI is > 100 µM.

What about the TGI [46] of the same compound?
Its TGI is > 100 µM.

What about the TGI [47] of the same compound?
The TGI was > 100 µM.

And the TGI [48]?
The TGI was > 100 µM.

And the TGI [49]?
Its TGI is > 100 µM.

What about the TGI [50] of the same compound?
Its TGI is > 100 µM.

And the TGI [51]?
Its TGI is > 100 µM.

What about the TGI [52] of the same compound?
Its TGI is > 100 µM.

And the TGI [53]?
Its TGI is > 100 µM.

What about the TGI [54] of the same compound?
The TGI was > 100 µM.

What about the TGI [55] of the same compound?
The TGI was > 100 µM.

What about the TGI [56] of the same compound?
Its TGI is > 100 µM.

What about the TGI [57] of the same compound?
The TGI was > 100 µM.

How did the TGI [1] turn out when COC(=O)C12Oc3ccc(-c4ccc5c(c4O)C(=O)C4=CCC(C)C(O)C4(C(=O)OC)O5)c(O)c3C(=O)C1=CCC(C)C2O (stereo not drawn) was run?
Its TGI is 3.25 µM.

And the TGI [2]?
The TGI was 11.9 µM.

What about the TGI [3] of the same compound?
Its TGI is 2.15 µM.

What about the TGI [58] of the same compound?
The TGI was 2.98 µM.

And the TGI [59]?
The TGI was 2.65 µM.

What about the TGI [4] of the same compound?
Its TGI is 3.21 µM.

What about the TGI [5] of the same compound?
Its TGI is 4.61 µM.

And the TGI [6]?
The TGI was 2.67 µM.

What about the TGI [7] of the same compound?
The TGI was > 23 µM.

And the TGI [8]?
The TGI was 2.82 µM.

What about the TGI [10] of the same compound?
The TGI was > 30.6 µM.

What about the TGI [11] of the same compound?
The TGI was 2.9 µM.

And the TGI [12]?
Its TGI is 2.82 µM.

And the TGI [13]?
Its TGI is 6.05 µM.

What about the TGI [14] of the same compound?
Its TGI is 4.12 µM.

What about the TGI [16] of the same compound?
Its TGI is 6.33 µM.

And the TGI [60]?
The TGI was 3.46 µM.

And the TGI [17]?
Its TGI is 3.06 µM.

What about the TGI [18] of the same compound?
The TGI was 2.65 µM.

And the TGI [19]?
The TGI was 3.26 µM.

What about the TGI [20] of the same compound?
Its TGI is 3.57 µM.

And the TGI [61]?
The TGI was > 100 µM.

What about the TGI [21] of the same compound?
The TGI was 6.56 µM.

And the TGI [62]?
The TGI was 5.24 µM.

And the TGI [24]?
The TGI was 5.1 µM.

And the TGI [25]?
The TGI was 6.59 µM.

And the TGI [26]?
Its TGI is 17.4 µM.

What about the TGI [27] of the same compound?
The TGI was 3.28 µM.

What about the TGI [28] of the same compound?
The TGI was 2.14 µM.

What about the TGI [31] of the same compound?
The TGI was 3.81 µM.

What about the TGI [32] of the same compound?
The TGI was 7.33 µM.

And the TGI [33]?
The TGI was 20.5 µM.

And the TGI [34]?
The TGI was 2.45 µM.

What about the TGI [35] of the same compound?
The TGI was 3.13 µM.

And the TGI [37]?
The TGI was 4.97 µM.

What about the TGI [38] of the same compound?
Its TGI is 3.51 µM.

What about the TGI [39] of the same compound?
Its TGI is 6.1 µM.

What about the TGI [40] of the same compound?
Its TGI is 3.03 µM.

What about the TGI [41] of the same compound?
The TGI was 2.93 µM.

What about the TGI [42] of the same compound?
The TGI was 2.83 µM.

And the TGI [43]?
Its TGI is 2.75 µM.

What about the TGI [44] of the same compound?
The TGI was 3.81 µM.

And the TGI [45]?
Its TGI is 3.54 µM.

And the TGI [46]?
Its TGI is 4.95 µM.

And the TGI [48]?
The TGI was 2.6 µM.

What about the TGI [49] of the same compound?
Its TGI is 9.26 µM.

What about the TGI [50] of the same compound?
Its TGI is 3.46 µM.

What about the TGI [51] of the same compound?
Its TGI is 2.79 µM.

What about the TGI [52] of the same compound?
Its TGI is 3.98 µM.

What about the TGI [53] of the same compound?
Its TGI is 3.77 µM.

What about the TGI [54] of the same compound?
Its TGI is 4.7 µM.

What about the TGI [55] of the same compound?
The TGI was 3.63 µM.

And the TGI [56]?
Its TGI is 6.71 µM.

What about the TGI [63] of the same compound?
The TGI was 4.81 µM.

And the TGI [57]?
The TGI was 5.46 µM.

And the TGI [64]?
Its TGI is 3.21 µM.

What does the source list for N#CCC(=O)Nc1cccc(C(F)(F)F)c1?
TGI [1]: > 100 µM; TGI [2]: > 100 µM; TGI [3]: > 100 µM; TGI [58]: > 100 µM; TGI [59]: > 100 µM; TGI [5]: > 100 µM; TGI [6]: > 100 µM; TGI [7]: > 100 µM; TGI [8]: > 100 µM; TGI [11]: > 100 µM; TGI [12]: > 100 µM; TGI [13]: > 100 µM; TGI [14]: > 100 µM; TGI [15]: > 100 µM; TGI [16]: > 100 µM; TGI [60]: > 100 µM; TGI [17]: > 100 µM; TGI [18]: > 100 µM; TGI [19]: > 100 µM; TGI [20]: > 100 µM; TGI [61]: > 100 µM; TGI [21]: > 100 µM; TGI [22]: > 100 µM; TGI [62]: > 100 µM; TGI [24]: > 100 µM; TGI [25]: > 100 µM; TGI [26]: > 100 µM; TGI [27]: > 100 µM; TGI [28]: > 100 µM; TGI [31]: > 100 µM; TGI [32]: > 100 µM; TGI [33]: > 100 µM; TGI [34]: > 100 µM; TGI [35]: > 100 µM; TGI [37]: > 100 µM; TGI [38]: > 100 µM; TGI [39]: > 100 µM; TGI [40]: > 100 µM; TGI [41]: > 100 µM; TGI [42]: > 100 µM; TGI [43]: > 100 µM; TGI [45]: > 100 µM; TGI [46]: > 100 µM; TGI [48]: > 100 µM; TGI [49]: > 100 µM; TGI [50]: > 100 µM; TGI [51]: > 100 µM; TGI [52]: > 100 µM; TGI [53]: > 100 µM; TGI [54]: > 100 µM; TGI [55]: > 100 µM; TGI [56]: > 100 µM; TGI [63]: > 100 µM; TGI [57]: > 100 µM; TGI [64]: > 100 µM

— PubChem BioAssay (NCI)
